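Cultured in 96-well plates, cells were exposed to test compound for 48 hours across five concentrations. GI50: concentration for 50% inhibition of growth.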 Active and inactive are the calls of the source. No stated cut-off is given here; in the data, active = GI50 up to about 1.1 µM and inactive = higher. Where only a bound is given, the exact number is not on record here.

Among the test systems are NCI-H522; MDA-N; Malme-3M; PC-3; RXF 393; SF-268; NCI/ADR-RES; NCI-H226; SK-OV-3; EKVX; SF-539; HL-60; 786-0; MDA-MB-435; UACC-257; UO-31; LOX IMVI; DU-145; RPMI-8226; A549.
What all share (assay): growth of human tumour cells (NCI), 48 h

With `CCN(CC)CCN1c2ccccc2Sc2ccc3ccccc3c21`, the GI50 in the assay with NCI-H522 was 11.8 µM (inactive); with MDA-N it was 12.3 µM (inactive); with Malme-3M it was 15.4 µM (inactive); in the assay with PC-3, 6.73 µM (inactive); with RXF 393, 2.12 µM (inactive); in the assay on SF-268, 14.4 µM (inactive). The GI50 in the assay on NCI/ADR-RES was 10.6 µM (inactive); with NCI-H226, 7.45 µM (inactive); with SK-OV-3 it was 15.8 µM (inactive); with EKVX it was 6.37 µM (inactive); in the assay on SF-539, 13.6 µM (inactive); in the assay on HL-60, 3.54 µM (inactive). Moreover, the GI50 is 11.3 µM (inactive) in the assay on 786-0; 8.63 µM (inactive) in the assay with MDA-MB-435; 7.69 µM (inactive) in the assay on UACC-257; 5.81 µM (inactive) in the assay on UO-31; 7.52 µM (inactive) in the assay with LOX IMVI; 3.93 µM (inactive) in the assay with DU-145. Further, the GI50 is 3.33 µM (inactive) in the assay with RPMI-8226 and 14.2 µM (inactive) in the assay on A549.
`O=C(NCCCCCCCN1CCCCCCC1)C(C1CCCCC1)C1CCCCC1`: the GI50 is 14 µM (inactive) in the assay on NCI-H522; 7.93 µM (inactive) in the assay with MDA-N; 3.34 µM (inactive) in the assay with Malme-3M; 8.57 µM (inactive) in the assay on PC-3; 5.61 µM (inactive) in the assay on RXF 393; 15.8 µM (inactive) in the assay with SF-268. Also, the GI50 in the assay on NCI/ADR-RES is 9.98 µM (inactive); with NCI-H226 it was 9.42 µM (inactive); in the assay on SK-OV-3, 11.3 µM (inactive); in the assay on EKVX, 4.4 µM (inactive); with SF-539, 11.2 µM (inactive); in the assay with HL-60, 5.14 µM (inactive). The GI50 with 786-0 is 4.74 µM (inactive); with MDA-MB-435, 7.67 µM (inactive); in the assay with UACC-257, 2.09 µM (inactive); in the assay with UO-31, 9.53 µM (inactive); with LOX IMVI it was 12 µM (inactive); in the assay with DU-145, 13.8 µM (inactive). Moreover, the GI50 in the assay with RPMI-8226 was 2.56 µM (inactive); in the assay on A549 it was 11.7 µM (inactive).
Regarding `CC(C)(C)C1=CC(=C(c2ccc(-c3c4nc(c(-c5ccc(C(=C6C=C(C(C)(C)C)C(=O)C(C(C)(C)C)=C6)c6cc(C(C)(C)C)c(O)c(C(C)(C)C)c6)cc5)c5ccc([nH]5)c(-c5ccc(C(=C6C=C(C(C)(C)C)C(=O)C(C(C)(C)C)=C6)c6cc(C(C)(C)C)c(O)c(C(C)(C)C)c6)cc5)c5nc(c(-c6ccc(C(=C7C=C(C(C)(C)C)C(=O)C(C(C)(C)C)=C7)c7cc(C(C)(C)C)c(O)c(C(C)(C)C)c7)cc6)c6ccc3[nH]6)C=C5)C=C4)cc2)c2cc(C(C)(C)C)c(O)c(C(C)(C)C)c2)C=C(C(C)(C)C)C1=O`, the GI50 in the assay with NCI-H522 was > 100 µM (inactive); in the assay on MDA-N, > 100 µM (inactive); with Malme-3M it was > 100 µM (inactive); in the assay with PC-3, > 100 µM (inactive); with RXF 393, > 70.8 µM (inactive); in the assay with SF-268 it was > 100 µM (inactive). In addition, the GI50 in the assay with NCI/ADR-RES, in the assay with NCI-H226, in the assay on SK-OV-3, with EKVX, in the assay on SF-539 and with HL-60 was > 100 µM (inactive) throughout. The GI50 with 786-0 was > 77.8 µM (inactive); in the assay on MDA-MB-435, > 100 µM (inactive); in the assay on UACC-257, > 100 µM (inactive); in the assay on UO-31, > 100 µM (inactive); in the assay on LOX IMVI, > 100 µM (inactive); in the assay on DU-145, > 100 µM (inactive). Besides, the GI50 in the assay with RPMI-8226 and in the assay on A549 was > 100 µM (inactive) throughout.
As for `Nc1ccc(Oc2ccc(C34CC5CC(C3)CC(c3ccc(Oc6ccc(N)cc6)cc3)(C5)C4)cc2)cc1`, the GI50 was 11.9 µM (inactive) in the assay with NCI-H522; 8.71 µM (inactive) in the assay on MDA-N; 11.6 µM (inactive) in the assay on Malme-3M; 6.28 µM (inactive) in the assay on PC-3; 12.8 µM (inactive) in the assay on RXF 393; 9.66 µM (inactive) in the assay on SF-268. For the same compound, the GI50 with NCI/ADR-RES is 13.9 µM (inactive); with NCI-H226, 26.5 µM (inactive); in the assay with SK-OV-3, 22.2 µM (inactive); in the assay on EKVX, 25.4 µM (inactive); in the assay with SF-539, 13.7 µM (inactive); in the assay with HL-60 it was > 41.3 µM (inactive). The GI50 with 786-0 is 10.2 µM (inactive); with MDA-MB-435, 7.53 µM (inactive); with UACC-257, 9.86 µM (inactive); with UO-31, 33 µM (inactive); in the assay with LOX IMVI, 6.25 µM (inactive); in the assay with DU-145 it was 7.43 µM (inactive). Also, the GI50 with RPMI-8226 was 4.14 µM (inactive); in the assay with A549 it was 11.1 µM (inactive).
Turning to `NC(=O)NNCc1c(-c2ccccc2)no[n+]1[O-]`, the GI50 with NCI-H522, in the assay with MDA-N, in the assay on Malme-3M, in the assay on PC-3, in the assay with RXF 393 and with SF-268 was > 100 µM (inactive) each time. The GI50 with NCI/ADR-RES, in the assay with NCI-H226, with SK-OV-3, with EKVX, with SF-539 and in the assay on HL-60 was > 100 µM (inactive) throughout. Further, the GI50 in the assay on 786-0, in the assay on MDA-MB-435, in the assay with UACC-257, in the assay on UO-31, with LOX IMVI and in the assay on DU-145 was > 100 µM (inactive) each time. The GI50 with RPMI-8226 and in the assay on A549 was > 100 µM (inactive) each time.
In the case of `O=C(O)CCC1C(=O)C2CCN1CC2` (stereo not given), the GI50 in the assay with NCI-H522, in the assay with MDA-N, with Malme-3M, in the assay with PC-3, in the assay on RXF 393 and in the assay with SF-268 was > 100 µM (inactive) each time. For the same compound, the GI50 in the assay on NCI/ADR-RES, with NCI-H226, with SK-OV-3, with EKVX, in the assay on SF-539 and with HL-60 was > 100 µM (inactive) throughout. The GI50 in the assay with 786-0, with MDA-MB-435, in the assay on UACC-257, in the assay with UO-31, in the assay with LOX IMVI and in the assay on DU-145 was > 100 µM (inactive) in each case. Further, the GI50 in the assay on RPMI-8226 and in the assay with A549 was > 100 µM (inactive) throughout.
Turning to `C[C@H]1/C(=C/C(=O)OCCN(C)C)CC[C@H]2[C@H]1C(=O)C[C@H]1C(C)(C)[C@@H](O)CC[C@]21C`, the GI50 with NCI-H522, with MDA-N, in the assay on Malme-3M, in the assay with PC-3, in the assay with RXF 393 and with SF-268 was > 100 µM (inactive) throughout. In addition, the GI50 is > 100 µM (inactive) with NCI/ADR-RES; 22.5 µM (inactive) in the assay on NCI-H226; > 100 µM (inactive) in the assay with SK-OV-3; > 100 µM (inactive) in the assay on EKVX; > 100 µM (inactive) in the assay on SF-539; > 100 µM (inactive) with HL-60. Moreover, the GI50 in the assay with 786-0, in the assay with MDA-MB-435, in the assay on UACC-257, in the assay with UO-31, in the assay on LOX IMVI and in the assay on DU-145 was > 100 µM (inactive) each time. Further, the GI50 with RPMI-8226 and in the assay with A549 was > 100 µM (inactive) throughout.
In the case of `COC(=O)/C=C(/C=C1/C(C#N)=C(N)N(c2ccc(Cl)cc2)C1(C)/C(=C\C(=O)OC)C(=O)OC)C(=O)OC` (stereo not given), the GI50 in the assay on NCI-H522 is 5.69 µM (inactive); with MDA-N it was 16.2 µM (inactive); in the assay with Malme-3M, 25.1 µM (inactive); in the assay on PC-3, 12.9 µM (inactive); in the assay with RXF 393, 19.2 µM (inactive); with SF-268 it was 19.5 µM (inactive). The GI50 is 16.8 µM (inactive) with NCI/ADR-RES; 24.1 µM (inactive) in the assay on NCI-H226; 33.7 µM (inactive) with SK-OV-3; 43.9 µM (inactive) in the assay on EKVX; 15.4 µM (inactive) with SF-539; 13.7 µM (inactive) in the assay with HL-60. Further, the GI50 in the assay on 786-0 is 18.1 µM (inactive); in the assay on MDA-MB-435, 18.5 µM (inactive); in the assay with UACC-257, 18.9 µM (inactive); in the assay on UO-31 it was 17.9 µM (inactive); with LOX IMVI, 17.1 µM (inactive); in the assay with DU-145 it was 35.5 µM (inactive). Moreover, the GI50 in the assay with RPMI-8226 was 25.1 µM (inactive); in the assay on A549, 28.2 µM (inactive).
For `COc1cc2c(c(OC)c1OC)-c1ccc(SC)c(=O)cc1[C@@H](NC(=O)C(F)(F)F)CC2`, the GI50 with NCI-H522, with MDA-N, in the assay with Malme-3M, in the assay with PC-3, with RXF 393 and in the assay on SF-268 was < 0.01 µM (active) throughout. The GI50 with NCI/ADR-RES was 0.0261 µM (active); with NCI-H226 it was 0.199 µM (active); in the assay on SK-OV-3, 0.13 µM (active); in the assay on EKVX, 13.8 µM (inactive); with SF-539, < 0.01 µM (active); in the assay on HL-60, < 0.01 µM (active). Also, the GI50 with 786-0 was < 0.01 µM (active); in the assay on MDA-MB-435, < 0.01 µM (active); with UACC-257, < 0.01 µM (active); in the assay with UO-31, < 0.0146 µM (active); with LOX IMVI, < 0.01 µM (active); in the assay on DU-145 it was < 0.01 µM (active). Also, the GI50 in the assay on RPMI-8226 and in the assay with A549 was < 0.01 µM (active) each time.

Values taken from ChEMBL document CHEMBL1201862, “PubChem BioAssay data set” (2004).
